# Measurements published in US5599839A, “Antiviral composition” (The United States of America as represented by the …, priority 1995, dated 1997).
# Read-outs that look alike come from different tables or passages of the source.
# Experiments:
# CEM-SS cells [1] = assay type: binding, human; settings: for Ki: read-out: Ki, inhibition of [3H]PDBu binding to CEM cells
# Experimental: (§1) Incubation was for 30 min at 37° C., after which the cells were chilled, an aliquot removed to determine total counts, and bound counts determined by filtration.
# Binding affinities of phorbol esters in cells are typically lower than those obtained with reconstituted protein kinase C [Blumberg et al.: in Mechanism of Tumor Promotion, Vol. 3. Tumor Promotion and Cocarcinogenesis in vitro, (Slaga T. J., ed.) Boca Raton, Fla.: CRC Press, 1984, pp. 143-184], presumably reflecting the role of cellular calcium and phospholipid composition on binding [Konig et al.: J. Cell. Biochem. 7:255-265, (1985)]. […] The usual binding protocol were cells omits serum, because of reportedly variable effects of serum on binding [Blumberg et al.: in Mechanism of Tumor Promotion, Vol. 3. Tumor Promotion and Cocarcinogenesis in vitro, (Slaga T. J., ed.) Boca Raton, Fla.: CRC Press, 1984, pp. 143-184].
# C3H10T1/2 cells [2] = assay: Release of [3H]arachidonic acid metabolites in C3H10T1/2 cells; assay type: cell-based; settings: Mus musculus, C3H 10T1/2, read-out: Half-maximally effective concentration, release of arachidonic acid metabolites
# Description: (§2) Well-characterized biological responses to the phorbol esters include inhibition of binding of epidermal growth factor and release of arachidonic acid metabolites [Dell'Aquila et al.: Cancer Res. 48:3702-3708, (1988)].
# protein kinase C = assay: [3H]PDBu binding to partially purified protein kinase C; settings: read-out: Ki, competition of [3H]PDBu binding to protein kinase C; for comparison; mean±range, 2 experiments
# Experimental: as §1
# [3] = test system: HIV-1 (RF variant) in CEM-SS cells; assay: XTT-tetrazolium anti-HIV assay (HIV-1-infected CEM-SS cells); assay type: cell-based; settings: 50 nM
# Description: (§3) Cancer Inst. […] Cancer Inst. 81:1254-1258, (1989)] but with several modifications.
# (§4) Philadelphia: Lippincott, 1988, pp. 305-317; Weislow et al.: J. Nat. Cancer Inst. […] Cancer Inst. 81:1254-1258, (1989)].
# CEM-SS cells [4] = assay type: cell-based, human
# Description: as §3, §4
# C3H10T1/2 cells [5] = assay: Inhibition of 125I-epidermal growth factor binding in C3H10T1/2 cells; assay type: cell-based
# Description: as §2
# [6] = test system: HIV-1 (RF variant) in CEM-SS cells; assay: microbe, parasite or virus in culture; settings: Human immunodeficiency virus 1, CEM-SS, 144 h, read-out: Concentration at which syncytium formation (infectious virions) is strikingly inhibited (as low as)
# Experimental: (§5) The XTT-tetrazolium anti-HIV assay was performed on crude extracts, chromatographic fractions and pure compounds as previously described [Weislow et al.: J. Nat. Cancer Inst. 81:577-586, (1989) and Gustafson et al.: J. Nat. Cancer Inst. 81:1254-1258, (1989)] but with several modifications. The human T-lymphoblastic cell line CEM-SS [Nara et al.: AIDS Res. Hum. […] Concentrated pellets of CEM-SS cells were incubated with the free virus for 1 hour at 37° C. The cells were then diluted and inoculated into round-bottomed 96-well microtiter plates (Corning) at a density of 5000 cells/well. Test compounds and the appropriate controls were then added to the wells, and the plates were incubated for 6 days. At the end of the incubation period cell growth parameters and HIV-1 activities were determined.
# (§6) Aliquots of supernatant fluid from the test wells of the tetrazolium assay were removed prior to the time of XTT addition for quantitation of residual infectious virus using the syncytium assay described by Nara et al. [Nara et al.: AIDS Res. Hum. Retroviruses 3:283:302, (1987)].
# HIV-1 p24 = assay: microbe, parasite or virus in culture; settings: Human immunodeficiency virus 1, 144 h, read-out: Concentration at which p24 viral antigen production is strikingly inhibited (as low as)
# Experimental: as §5, §6
# [7] = cited from earlier work
# in vitro = settings: human, cem-ss cells
# Experimental: (§7) Trypan blue dye exclusion was employed for secondary evaluation of drug toxicity and antiviral protection over time. A 50 μl aliquot of cells was removed from each test well and mixed with 100 μl of 0.4% trypan blue. The percentage of viable cells was determined microscopically by direct hemocytometer counts.
# CEM-SS cells [8] = assay: in vitro; settings: HIV-1-infected, prostratin-treated (FIG. 4)
# Experimental: as §7
molecule,measurement,setting,value
"[^3 H]phorbol 12,13-dibutyrate [[^3 H]PDBu, reference compound]",Bmax in CEM-SS cells,"CEM-SS cells [1]; mean±range, 2 experiments",1.2±0.1 pmol/mg protein
same,Kd,"CEM-SS cells [1]; mean±range, 2 experiments, read-out: Binding affinity in CEM-SS cells",4.9 ± 0.8 nM
"CCCC(=O)O[C@@H]1[C@@H](C)[C@@]2(O)[C@@H](C=C(CO)C[C@]3(O)C(=O)C(C)=C[C@@H]23)[C@@H]2C(C)(C)[C@]12OC(=O)CCC [PDBu, phorbol 12,13-dibutyrate, reference compound]",EC50,C3H10T1/2 cells [2],24 nM
CC1=C[C@H]2[C@@]3(O)[C@H](C)C[C@]4(OC(=O)C(C)C)[C@H]([C@@H]3C=C(CO)C[C@]2(O)C1=O)C4(C)C [12-deoxyphorbol 13-isobutyrate],Ki,protein kinase C,2.1 ± 0.1 nM
"CCCCCCCCCCCCCC(=O)O[C@@H]1[C@@H](C)[C@@]2(O)[C@@H](C=C(CO)C[C@]3(O)C(=O)C(C)=C[C@@H]23)[C@@H]2C(C)(C)[C@]12OC(C)=O [PMA, phorbol 12-myristate 13-acetate, reference compound]",Protection against HIV-1,[3],protective against HIV-1
same,Cytostatic effect,CEM-SS cells [4]; 50 nM,cytostatic
CC(=O)O[C@@]12C[C@@H](C)[C@@]3(O)[C@@H](C=C(CO)C[C@]4(O)C(=O)C(C)=C[C@@H]34)[C@@H]1C2(C)C [prostratin],Ki,"CEM-SS cells [1]; 10% fetal calf serum, one experiment",190 nM
same,Ki,"CEM-SS cells [1]; without serum, 30 min at 37° C, mean±range, 2 experiments",210 ± 30 nM
same,EC50,C3H10T1/2 cells [2],1100 nM
same,Inhibition of binding of epidermal growth factor,C3H10T1/2 cells [5],induces both of these responses
same,minimal effective concentration,[6],≤ 1 µg/mL
same,minimal effective concentration,HIV-1 p24,≤ 1 µg/mL
same,Tumor promoting activity,"[7]; general statement, no test described",substantially lacks tumor promoting activity
same,Tumor promoting activity,"[7]; reported, Zayed et al. 1977",not a tumor promoter
same,viability,in vitro,> 90%
same,"Cell viability, infected cultures",CEM-SS cells [8],greater than 90%
same,Growth-inhibitory (cytostatic) effect on uninfected control cultures,"CEM-SS cells [4]; 1.0-200 μg/ml, uninfected CEM-SS, 6 days","marked growth-inhibitory, or cytostatic, effect"
